What was measured:
[1] = tested on: CD4, CD8, CD11c, CD19, F480 or GR1(CD117) positive splenocytes; conditions: total splenocytes, double staining, 20 μM
Method: (§3) Binding assays were carried out using either splenocytes (FIG. 1, panels A B, D, E and G) or bone marrow derived dendritic cells (FIG. 1, panels C and F). The cells were fixed by means of an incubation with a 0.4% glutaraldehyde solution for 15 minutes at 4° C. 5×10^5 fixed cells were incubated in the presence of 20 μM CFSE αMod-[sequence] (FIG. 1, panels A, B and C), or CFSE γMod-[sequence] (FIG. 1, panels D, E, F and G). In some assays, and to study the specificity of CFSE labeled peptide binding, these incubations were carried out in the presence or absence of the unlabeled peptides αMod-[sequence], γMod-[sequence] or [sequence] (100 μM) (panels B and E). Also, we carried out binding assays using the CFSE labeled peptide CFSE-OVA (235-264) as a negative control (FIG. 1, panels A, C, D and F). After 30 minutes of incubation at 4° C., two washings with PBS were carried out and the performed labeling was analyzed by flow cytometry. In some experiments (FIG. 1G), double staining was carried out using anti-CD4, CD8, CD11c, CD19, F480 or GR1(CD117) antibodies labeled with phycoerythrin (Pharmingen) together with the CFSE-γMod-[sequence] peptide. In these cases, the labeling with the specific antibodies was carried out before fixing the cells with glutaraldehyde.

[2] = tested on: splenocytes from C57BL/6 TLR2KO mice; test: Binding of CFSE labeled peptides to fixed splenocytes from TLR2 KO mice (flow cytometry); type: cell-based, mouse; conditions: 20 μM peptide, 30 minutes at 4° C.
Method: Mouse splenocytes were purified from C57BL/6 TLR2KO mice after homogenizing the spleen. […] 5×10^5 fixed splenocytes were incubated in the presence of 20 μM CFSE γMod-SIINFEKL, CFSE αMod-SIINFEKL or CFSE-OVA (235-264) control peptide to show the binding specificity.

[3] = tested on: bone marrow derived dendritic cells; test: Binding of CFSE labeled peptides to bone marrow derived dendritic cells (flow cytometry); type: cell-based, mouse; conditions: 20 μM peptide, fixed cells, 30 minutes at 4° C.
Method: Dendritic cells were grown from bone marrow cells. After lysing the erythrocytes with ACK lysis buffer, the cells were washed and lymphocytes and granulocytes were removed by means of incubation with a mixture of antibodies against CD4 (GK1; ATCC, Manassas, Va.), CD8 (53.6.72; ATCC), Ly-6G/Gr1 (BD-Pharmingen; San Diego Calif.) and CD45R/B220 (BD-Pharmingen), followed by rabbit supplement. The remaining cells grew in 12 culture plates in complete medium with 10^6 cells/ml supplemented with 20 ng/ml of mGM-CSF and 20 ng/ml of mIL-4 (both from Peprotech; London, GB). Every 2 days the medium was substituted with fresh medium containing cytokines. On day 7, non-adherent dendritic cells were collected, and cultured in the presence or absence of 50 μM of modulin peptides or of 1 μg/ml of LPS (Sigma) and incubated for 48 hours at 37° C. and 5% CO2. After this period, the cells were isolated and incubated with anti IAb, CD54 and CD86 antibodies (Pharmingen). In parallel experiments, the dendritic cells were incubated with the indicated stimuli for 16 hours, after which the expression of the messenger RNA for the p40 molecules of IL-12 and of TNF-α was analyzed.

mouse splenocytes = test: Binding of CFSE labeled peptides to glutaraldehyde-fixed splenocytes (flow cytometry); type: cell-based; conditions: unlabeled competitor 100 μM
Method: as §3

EG7OVA tumor cells [4] = test: Treatment of mice bearing established EG7OVA tumors; type: in vivo, C57BL/6 mice; conditions: EG7OVA tumors of 5 mm diameter at treatment, peptide plus poly I:C, p<0.05
Method: (§1) Protection against the challenge with EG7 tumor cells expressing the OVA protein C57BL6 mice were subcutaneously immunized with 5 nmol of the indicated peptides in combination with poly I:C. Seven days after the immunization, the mice were subcutaneously injected with 5×10^5 or with 5×10^7 EG7OVA cells. In some experiments, mice were first challenged s.c with 5×10^5 cells and when tumors reached 5 mm in diameter they were treated with the indicated peptide. The tumor growth was controlled with a gage. Mice were sacrificed when the tumor reached a volume greater than 4 cm^3. Kaplan-Meier plot of mice survival for each immunogen is depicted.

[5] = tested on: T cells from OT-1 transgenic mice; test: Antigen presentation assay: proliferation of OT-1 T cells (tritiated thymidine); type: cell-based, mouse; conditions: dendritic cells incubated with 10 μM peptide
Method: Dendritic cells derived from bone marrow were cultured in the presence or absence of 10 μM of the indicated peptides (FIG. 3). Forty hours later, the cells were washed and distributed in 96-well plates at different concentrations and incubated in the presence of 10^5 T cells/well obtained from OT-1 transgenic mice (which express a specific T receptor for the SIINFEKL peptide of ovalbumin. Seventy-two hours later, tritiated thymidine was added to the cultures and six hours later the cells were harvested and the incorporated thymidine was analyzed in a scintillation counter (Topcount Packard).

EG7OVA tumor cells [6] = test: Protection against the challenge with EG7OVA tumor cells after immunization; type: in vivo, C57BL/6 mice; conditions: 5 nmoles peptide with poly I:C
Method: as §1, with “Seven days after the immunization, the mice were subcutaneously injected with 5×10^5 or with 5×10^7 EG7OVA cells.” left out

[7] = tested on: IFNγ-producing cells in response to the SIINFEKL peptide; test: ELISPOT of IFNγ-producing cells specific for SIINFEKL in TLR2 KO mice; type: in vivo; conditions: mice lacking TLR2, 5 nmoles peptide with 50 μg poly I:C, seven days; level similar to wild type
Method: (§2) For the analysis of IFNγ-producing cells in the presence of SIINFEKL and induced in vivo by the immunizations, ELISPOT experiments were carried out using a BD-pharmingen kit (San Diego, Calif.) and according to the instructions of the manufacturer, in the same manner as in Example 3.

[8] = tested on: splenocytes pulsed with the SIINFEKL peptide; test: In vivo killing assay against SIINFEKL-pulsed splenocytes after immunization; design: species or system C57BL/6 mice; conditions: for specific cytotoxic activity against SIINFEKL (in vivo killing): 5 nmoles peptide plus 50 μg poly I:C, seven days after immunization; for effect of combination with TLR3 ligand on activation of the cytotoxic response (in vivo killing): 5 nmoles peptide with 50 μg TLR3 ligand (poly I:C); for effect of combination with TLR3 ligand on activation of the cytotoxic response (in vivo killing) / effect of combination with TLR9 ligand on activation of the cytotoxic response (in vivo killing) / cytotoxic T responses against SIINFEKL target cells (in vivo killing): seven days; for effect of combination with TLR9 ligand on activation of the cytotoxic response (in vivo killing): 5 nmoles peptide with 50 μg TLR9 ligand (CpG); for cytotoxic T responses against SIINFEKL target cells (in vivo killing): Example 4, C57BL/6 wild type mice, 5 nmoles peptide with 50 μg poly I:C
Method: C57BL6 mice were intravenously immunized intravenously with 5 nmoles of the indicated peptides in combination with 50 μg of the TLR3 ligand poly I:C. In some cases, the peptides were immunized in the presence of TLR2 (peptidoglycan), TLR4 (LPS or the EDA protein) or TLR9 (CpG) ligand. […] On the following day, the mice were sacrificed and the splenocytes were analyzed by flow cytometry to quantify the number of cells with high CFSE labeling with respect to the cells with low CFSE labeling. Thus, the percentage of cell lysis of the cells incubated with the cytotoxic SIINFEKL peptide can be calculated in an experiment called in vivo killing.
C57BL6 wild type mice and knockout mice were immunized for TLR2 with the aim of studying the dependence on TLR2 in the immunostimulating capacity of modulin-derived peptides. Thus, different mice were injected with 5 nmoles of the indicated peptides or with PBS in combination with 50 μg of the TLR3 ligand poly I:C. […] On the following day, the mice were sacrificed and the splenocytes were analyzed by flow cytometry to quantify the number of cells with high CFSE labeling with respect to the cells with low CFSE labeling in the same manner as in Example 3.

[9] = tested on: splenocytes pulsed with the SIINFEKL peptide; test: In vivo killing assay against SIINFEKL-pulsed splenocytes in TLR2 KO mice; conditions: mice lacking TLR2, 5 nmoles peptide with 50 μg poly I:C, seven days; level similar to wild type
Method: C57BL6 wild type mice and knockout mice were immunized for TLR2 with the aim of studying the dependence on TLR2 in the immunostimulating capacity of modulin-derived peptides. Thus, different mice were injected with 5 nmoles of the indicated peptides or with PBS in combination with 50 μg of the TLR3 ligand poly I:C. Seven days after the immunization, the mice were intravenously injected with a mixture of 5×10^6 splenocytes, half of which had been previously labeled with a dose of 0.25 μM C and the other half with 2.5 μM CFSE and the SIINFEKL peptide (10 μg/ml). On the following day, the mice were sacrificed and the splenocytes were analyzed by flow cytometry to quantify the number of cells with high CFSE labeling with respect to the cells with low CFSE labeling in the same manner as in Example 3.

[10] = tested on: IFNγ-producing cells in response to the SIINFEKL peptide; test: ELISPOT of IFNγ-producing cells specific for SIINFEKL after immunization; type: in vivo, C57BL/6 mice; conditions: for IFNγ-producing cells in response to SIINFEKL (ELISPOT): 5 nmoles peptide plus 50 μg poly I:C, seven days after immunization; for IFN-γ-producing cells specific for SIINFEKL (ELISPOT): Example 4, C57BL/6 wild type mice, 5 nmoles peptide with 50 μg poly I:C, seven days
Method: C57BL6 mice were intravenously immunized intravenously with 5 nmoles of the indicated peptides in combination with 50 μg of the TLR3 ligand poly I:C. In some cases, the peptides were immunized in the presence of TLR2 (peptidoglycan), TLR4 (LPS or the EDA protein) or TLR9 (CpG) ligand. Seven days after the immunization, the mice were intravenously injected with a mixture of 5×10^6 splenocytes, half of which had been previously labeled with a dose of 0.25 μM C and the other half with 2.5 uM CFSE and the SIINFEKL peptide (10 μg/ml). On the following day, the mice were sacrificed and the splenocytes were analyzed by flow cytometry to quantify the number of cells with high CFSE labeling with respect to the cells with low CFSE labeling. Thus, the percentage of cell lysis of the cells incubated with the cytotoxic SIINFEKL peptide can be calculated in an experiment called in vivo killing.
For the analysis of IFNγ-producing cells specific for SIINFEKL and induced in vivo by the immunizations, ELISPOT experiments were carried out using a BD-pharmingen kit (San Diego, Calif.) and according to the instructions of the manufacturer. Briefly, the plates (Multiscreen HTS, Millipore, Bedford, Mass.) incubated overnight with the anti-IFNγ antibody were blocked for 2 hours with HL-1 medium (Biowhittaker, Verviers, Belgium) containing 10% horse serum. Thus, 5×10^5 splenocytes were incubated in triplicate in the absence or in the presence of the antigens at 37° C. and 5% CO2. On the following day, the plates were washed with PBS and incubated with biotinylated anti-IFNγ antibody (2 mg/ml). After two hours, the plates were washed and incubated with a 1/100 dilution of streptavidin-peroxidase. One hour later, the wells were washed and developed using the AEC substrate set (BD-Pharmingen). The colorimetric reaction was stopped with distilled water and the number of spots was quantified using an ELISPOT automatic reader (CTL, Aalen, Germany).
as §2

[11] = tested on: TC-1 tumor cells (expressing the E7 protein of the HPV-16 virus); test: Treatment of mice carrying TC1 subcutaneous tumors; type: in vivo, C57B/6 mice; conditions: TC1 tumors of 8 mm diameter, i.v. peptide plus 50 μg/ml poly I:C, second immunization seven days later
Method: The C57B/6 mice were subcutaneously injected with 5×10^5 TC-1 tumor cells (expressing the E7 protein of the HPV-16 virus). After 25 days, when the tumor reaches a diameter of 8 mm, the mice are intravenously treated with PBS (B), with peptide E7(49-57) plus 50 μg/ml poly I:C(C), or with peptide αMod-E7(49-57) plus 50 μg/ml poly I:C (D). Seven days later, the mice received a second immunization of the same immunogens. The tumor size, presented as the average of two perpendicular diameters, was measured at regular intervals using a gauge. The number of tumor-free mice relative to the total number of animals per group is included for each treatment.

[12] = tested on: IFN-γ producing cells in the presence of the peptide E7(49-57); test: ELISPOT of IFN-γ producing cells against peptide E7(49-57) after immunization; type: in vivo, C57BL6 mice; conditions: 5 nmoles peptide with 50 μg poly I:C, seven days after immunization
Method: C57BL6 mice were intravenously immunized with 5 nmoles of the indicated peptides in combination with 50 μg of the TLR3 ligand poly I:C. For the analysis of the IFN-γ producing cells in the presence of the peptide E7(49-57) and induced in vivo by the immunizations, the animals were sacrificed 7 days after the immunizations and ELISPOT experiments were conducted using a BD-pharmingen kit (San Diego, Calif.) as indicated above and using peptide E7(49-57) as an antigen.

| Substance | proliferation of OT-1 T lymphocytes stimulated by peptide-incubated dendritic cells [5] | IFN-γ-producing cells specific for SIINFEKL (ELISPOT) [7] | specific cytotoxic activity against SIINFEKL (in vivo killing) [8] | effect of combination with TLR3 ligand on activation of the cytotoxic response (in vivo killing) [8] | effect of combination with TLR9 ligand on activation of the cytotoxic response (in vivo killing) [8] | cytotoxic T responses against SIINFEKL target cells (in vivo killing) [8] | cytotoxic T responses against SIINFEKL target cells (in vivo killing) [9] | IFNγ-producing cells in response to SIINFEKL (ELISPOT) [10] | IFN-γ-producing cells specific for SIINFEKL (ELISPOT) [10] | other results |
| --- | --- | --- | --- | --- | --- | --- | --- | --- | --- | --- |
| CFSE-MAADIISTIGDLVKWIIDTVNKFKKSIINFEKL [CFSE-γMod-SIINFEKL] |  |  |  |  |  |  |  |  |  | percentage of CD4+ cells stained with the CFSE peptide [1]: approximately 24.4%; percentage of CD8+ cells stained with the CFSE peptide [1]: ~17.8%; percentage of CD11c cells stained with the CFSE peptide [1]: ~62.1%; percentage of CD19 cells stained with the CFSE peptide [1]: ~52.8%; percentage of F418 cells stained with the CFSE peptide [1]: ~66.2%; percentage of GR1+ cells stained with the CFSE peptide [1]: ~27.3%; binding of CFSE labeled peptide to the surface of TLR2 KO splenocytes [2]: still retained the capacity to bind; binding of CFSE labeled peptide to bone marrow derived dendritic cells [3]: able to stain bone marrow derived dendritic cells |
| MAADIISTIGDLVKWIIDTVNKFKKSIINFEKL [γMod-SIINFEKL] | significantly better than OVA (235-264) peptide | also observed | strong cytotoxic responses | synergistic effect | synergistic effect | capable of inducing cytotoxic T responses | also observed | production of IFNγ | is induced | reduction of the bright fluorescence of CFSE γMod-SIINFEKL on splenocytes by unlabeled peptide (mouse splenocytes; 20 μM CFSE γMod-SIINFEKL): reduced the bright fluorescence; mice rejecting the established tumor (EG7OVA tumor cells [4]): about 38%; protection from tumor growth after EG7OVA challenge (EG7OVA tumor cells [6]; 7×10^5 EG7OVA cells s.c. seven days after immunization (FIG. 5B)): protected the mice from tumor growth |
| MADVIAKIVEIVKGLIDQFTQKRAHYNIVTF [αMod-E7(49-57)] |  |  |  |  |  |  |  |  |  | number of tumor-free (cured) mice relative to the total number of mice [11]: 11 of 11; response against the cytotoxic peptide E7 (49-57) (ELISPOT, IFN-γ producing cells) [12]: induces a specific cytotoxic response |
| MADVIAKIVEIVKGLIDQFTQKSIINFEKL [αMod-SIINFEKL] | significantly better than OVA (235-264) peptide | also observed | strong cytotoxic responses | synergistic effect | synergistic effect | capable of inducing cytotoxic T responses | also observed | production of IFNγ | is induced | inhibition of the CFSE αMod-SIINFEKL signal on splenocytes by unlabeled peptide (mouse splenocytes; 20 μM CFSE αMod-SIINFEKL): significantly inhibited; protection from tumor growth after EG7OVA challenge (EG7OVA tumor cells [6]; 5×10^5 EG7OVA cells s.c. seven days after immunization (FIG. 5A)): protected the mice from tumor growth |

Reference: US20110268757A1, “USE OF PHENOL-SOLUBLE MODULINS FOR VACCINE DEVELOPMENT” (INSTITUT PASTEUR, priority 2008, published 2011)
